#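 48-hour exposure; five concentrations; linearly interpolated endpoints. GI50 marks 50% less growth. TGI: total growth inhibition.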
# Tests used:
# Assay in all cases: DTP human tumour cell line panel, 48 h
# [1] = tested on: NCI-H226 lung
# [2] = tested on: HCC-2998 colon
# [3] = tested on: SK-MEL-2 melanoma
# [4] = tested on: UO-31 renal
# [5] = tested on: NCI/ADR-RES ovarian
# [6] = tested on: LOX IMVI melanoma
# [7] = tested on: DU-145 prostate
# [8] = tested on: UACC-62 melanoma
# [9] = tested on: OVCAR-8 ovarian
# [10] = tested on: RXF 393 renal
# [11] = tested on: MCF7 breast
# [12] = tested on: OVCAR-3 ovarian
# [13] = tested on: IGROV1 ovarian
# [14] = tested on: SK-MEL-5 melanoma
# [15] = tested on: SNB-75 CNS
# [16] = tested on: NCI-H460 lung
# [17] = tested on: MDA-MB-435
# [18] = tested on: HCT-15 colon
# [19] = tested on: U251 CNS
# [20] = tested on: ACHN renal
# [21] = tested on: OVCAR-4 ovarian
# [22] = tested on: A549 NSCLC
# [23] = tested on: HS 578T breast
# [24] = tested on: SF-539 CNS
# [25] = tested on: SK-OV-3 ovarian
# [26] = tested on: SNB-19 CNS
# [27] = tested on: SF-295 CNS
# [28] = tested on: RPMI-8226 leukemia
# [29] = tested on: HOP-62 NSCLC
# [30] = tested on: COLO 205 colon
# [31] = tested on: 786-0 renal
# [32] = tested on: NCI-H23 lung
# [33] = tested on: M14 melanoma
# [34] = tested on: KM12 colon
# [35] = tested on: K-562 leukemia
# [36] = tested on: HT29 colon
# [37] = tested on: MOLT-4 leukemia
# [38] = tested on: UACC-257 melanoma
# [39] = tested on: SW-620 colon
# [40] = tested on: CAKI-1 renal
# [41] = tested on: SK-MEL-28 melanoma
# [42] = tested on: TK-10 renal
# [43] = tested on: CCRF-CEM leukemia
# [44] = tested on: BT-549 breast
# [45] = tested on: SN12C renal
# [46] = tested on: MALME-3M melanoma
# [47] = tested on: HL-60(TB) leukemia
# [48] = tested on: HOP-92 NSCLC
# [49] = tested on: SR leukemia
# [50] = tested on: HCT-116 colon
# [51] = tested on: SF-268 CNS
# [52] = tested on: NCI-H522 lung
# [53] = tested on: T-47D breast
# [54] = tested on: EKVX NSCLC
# [55] = tested on: MDA-MB-231 breast
# [56] = tested on: PC-3 prostate
# [57] = tested on: OVCAR-5 ovarian
# [58] = tested on: A498 renal
smiles,measurement,setting,value
CCNCc1c(-c2cccc(OC(F)(F)F)c2)[nH]c2ccc(N3CCCC3)cc2c1=O,GI50,[1],9.29 µM
same,TGI,[1],> 100 µM
same,GI50,[2],1.88 µM
same,TGI,[2],3.58 µM
same,GI50,[3],3.73 µM
same,TGI,[3],17.2 µM
same,GI50,[4],3.72 µM
same,TGI,[4],> 100 µM
same,GI50,[5],2.48 µM
same,TGI,[5],7 µM
same,GI50,[6],3.31 µM
same,TGI,[6],12.5 µM
same,GI50,[7],3.8 µM
same,TGI,[7],> 100 µM
same,GI50,[8],3.47 µM
same,TGI,[8],14.3 µM
same,GI50,[9],5.22 µM
same,TGI,[9],> 100 µM
same,GI50,[10],2.39 µM
same,TGI,[10],7.61 µM
same,GI50,[11],2.57 µM
same,TGI,[11],11.2 µM
same,GI50,[12],3.45 µM
same,TGI,[12],20.3 µM
same,GI50,[13],3.54 µM
same,TGI,[13],> 100 µM
same,GI50,[14],2.09 µM
same,TGI,[14],4.42 µM
same,GI50,[15],1.42 µM
same,TGI,[15],8.65 µM
same,GI50,[16],3.72 µM
same,TGI,[16],16.2 µM
same,GI50,[17],1.95 µM
same,TGI,[17],4.32 µM
same,GI50,[18],3.47 µM
same,TGI,[18],15.9 µM
same,GI50,[19],3.23 µM
same,TGI,[19],14.8 µM
same,GI50,[20],6.73 µM
same,TGI,[20],> 100 µM
same,GI50,[21],7.77 µM
same,TGI,[21],> 100 µM
same,GI50,[22],5.81 µM
same,TGI,[22],> 100 µM
same,GI50,[23],1.94 µM
same,TGI,[23],6.48 µM
same,GI50,[24],2.24 µM
same,TGI,[24],5.85 µM
same,GI50,[25],7.19 µM
same,TGI,[25],> 100 µM
same,GI50,[26],4.03 µM
same,TGI,[26],> 100 µM
same,GI50,[27],1.97 µM
same,TGI,[27],4.06 µM
same,GI50,[28],2.44 µM
same,TGI,[28],6.85 µM
same,GI50,[29],5.63 µM
same,TGI,[29],73.8 µM
same,GI50,[30],2.36 µM
same,TGI,[30],5.74 µM
same,GI50,[31],3.84 µM
same,TGI,[31],20.6 µM
same,GI50,[32],3.15 µM
same,TGI,[32],10.7 µM
same,GI50,[33],1.95 µM
same,TGI,[33],4.28 µM
same,GI50,[34],3.54 µM
same,TGI,[34],20.7 µM
same,GI50,[35],3.4 µM
same,TGI,[35],> 100 µM
same,GI50,[36],3.53 µM
same,TGI,[36],> 100 µM
same,GI50,[37],3.88 µM
same,TGI,[37],37.3 µM
same,GI50,[38],2.35 µM
same,TGI,[38],6.08 µM
same,GI50,[39],3.17 µM
same,TGI,[39],13.7 µM
same,GI50,[40],3.54 µM
same,TGI,[40],17.6 µM
same,GI50,[41],2.25 µM
same,TGI,[41],5.51 µM
same,GI50,[42],24.7 µM
same,TGI,[42],> 100 µM
same,GI50,[43],3.52 µM
same,TGI,[43],> 100 µM
same,GI50,[44],4.84 µM
same,TGI,[44],44.6 µM
same,GI50,[45],4.12 µM
same,TGI,[45],46.4 µM
same,GI50,[46],1.99 µM
same,TGI,[46],4.41 µM
same,GI50,[47],2.86 µM
same,TGI,[47],9.69 µM
same,GI50,[48],4.19 µM
same,TGI,[48],38.4 µM
same,GI50,[49],2.71 µM
same,TGI,[49],12.4 µM
same,GI50,[50],3.46 µM
same,TGI,[50],35.4 µM
same,GI50,[51],6.44 µM
same,TGI,[51],69.2 µM
same,GI50,[52],3.98 µM
same,TGI,[52],23.1 µM
same,GI50,[53],4.78 µM
same,TGI,[53],59.3 µM
same,GI50,[54],12.3 µM
same,TGI,[54],> 100 µM
same,GI50,[55],2.69 µM
same,TGI,[55],9.28 µM
same,GI50,[56],3.87 µM
same,TGI,[56],> 100 µM
same,GI50,[57],3.81 µM
same,TGI,[57],43.5 µM
C#C[C@]1(O)CC[C@H]2[C@@H]3CC=C4c5sc(Nc6nc(C)cc(OC)n6)nc5CC[C@]4(C)[C@H]3CC[C@@]21C,GI50,[1],> 100 µM
same,TGI,[1],> 100 µM
same,GI50,[58],1.51 µM
same,TGI,[58],5.93 µM
same,GI50,[4],0.575 µM
same,TGI,[4],3.18 µM
same,GI50,[7],3.25 µM
same,TGI,[7],> 100 µM
same,GI50,[8],0.54 µM
same,TGI,[8],2.73 µM
same,GI50,[9],4.16 µM
same,TGI,[9],> 100 µM
same,GI50,[10],0.161 µM
same,TGI,[10],0.497 µM
same,GI50,[11],1.41 µM
same,TGI,[11],> 100 µM
same,GI50,[13],3.44 µM
same,TGI,[13],> 100 µM
same,GI50,[15],0.864 µM
same,TGI,[15],84.8 µM
same,GI50,[16],1.82 µM
same,TGI,[16],> 100 µM
same,GI50,[17],2.35 µM
same,TGI,[17],> 100 µM
same,GI50,[19],0.575 µM
same,TGI,[19],73.1 µM
same,GI50,[20],1.19 µM
same,TGI,[20],> 100 µM
same,GI50,[22],2.97 µM
same,TGI,[22],> 100 µM
same,GI50,[23],0.323 µM
same,TGI,[23],2.19 µM
same,GI50,[24],0.264 µM
same,TGI,[24],1.43 µM
same,GI50,[25],1.55 µM
same,TGI,[25],9.13 µM
same,GI50,[26],0.986 µM
same,TGI,[26],> 100 µM
same,GI50,[28],0.239 µM
same,TGI,[28],0.899 µM
same,GI50,[29],2.01 µM
same,TGI,[29],35.2 µM
same,GI50,[31],0.379 µM
same,TGI,[31],2.28 µM
same,GI50,[32],3.93 µM
same,TGI,[32],> 100 µM
same,GI50,[34],3.16 µM
same,TGI,[34],> 100 µM
same,GI50,[35],0.528 µM
same,TGI,[35],> 100 µM
same,GI50,[38],1.74 µM
same,TGI,[38],4.82 µM
same,GI50,[40],1.55 µM
same,TGI,[40],> 100 µM
same,GI50,[42],14.9 µM
same,TGI,[42],> 100 µM
same,GI50,[43],1.21 µM
same,TGI,[43],> 100 µM
same,GI50,[44],4.5 µM
same,TGI,[44],79.9 µM
same,GI50,[47],0.531 µM
same,TGI,[47],5.38 µM
same,GI50,[48],2.65 µM
same,TGI,[48],7.69 µM
same,GI50,[50],1.24 µM
same,TGI,[50],> 100 µM
same,GI50,[51],5.47 µM
same,TGI,[51],> 100 µM
same,GI50,[52],3.02 µM
same,TGI,[52],> 100 µM
same,GI50,[53],2.57 µM
same,TGI,[53],> 100 µM
same,GI50,[54],2.39 µM
same,TGI,[54],> 100 µM

# Reference: PubChem BioAssay (NCI)
